According to patent publication EP0572863A1, “CNS pyrazinoindoles” (priority 1992, dated 1993):
Like-named read-outs stand apart in the source and are kept apart here.

Experiments:
[1] = target: T1, 5HT1A-Rezeptor (Homo sapiens, UniProt P08908); assay: 3H-8-OH-DPAT binding test (test method a)
T1 sequence (P08908 1-422): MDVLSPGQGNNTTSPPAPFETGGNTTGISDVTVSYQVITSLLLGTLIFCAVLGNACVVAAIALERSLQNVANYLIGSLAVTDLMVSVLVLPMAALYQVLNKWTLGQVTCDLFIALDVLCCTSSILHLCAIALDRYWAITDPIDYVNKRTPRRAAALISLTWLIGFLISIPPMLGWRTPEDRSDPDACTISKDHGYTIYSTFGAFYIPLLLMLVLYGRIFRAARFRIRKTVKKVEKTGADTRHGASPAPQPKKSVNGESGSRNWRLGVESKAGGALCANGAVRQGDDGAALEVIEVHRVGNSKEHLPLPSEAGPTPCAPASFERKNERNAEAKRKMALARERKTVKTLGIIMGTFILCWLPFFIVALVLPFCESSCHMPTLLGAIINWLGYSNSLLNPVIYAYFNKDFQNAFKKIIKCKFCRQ

[2] = target: 5HT₂-Rezeptor (Homo sapiens, UniProt P28223); assay: 3H-Metanserin binding test (test method d)
[3] = target: 5HT1C-Rezeptor (Homo sapiens, UniProt P28335); assay: 3H-Mesulergin binding test (test method c)
[4] = target: T2, 5HT1c-Rezeptoren (Rattus norvegicus, UniProt P08909); assay: Antagonism of mCPP-induced penile erections; assay type: in vivo, Ratte; settings: mCPP-pretreated, dose inhibiting number of penile erections within 45 min by 50%
T2 construct: from tissue; host or cells: living rat (whole animal)
T2 sequence (P08909 33-460): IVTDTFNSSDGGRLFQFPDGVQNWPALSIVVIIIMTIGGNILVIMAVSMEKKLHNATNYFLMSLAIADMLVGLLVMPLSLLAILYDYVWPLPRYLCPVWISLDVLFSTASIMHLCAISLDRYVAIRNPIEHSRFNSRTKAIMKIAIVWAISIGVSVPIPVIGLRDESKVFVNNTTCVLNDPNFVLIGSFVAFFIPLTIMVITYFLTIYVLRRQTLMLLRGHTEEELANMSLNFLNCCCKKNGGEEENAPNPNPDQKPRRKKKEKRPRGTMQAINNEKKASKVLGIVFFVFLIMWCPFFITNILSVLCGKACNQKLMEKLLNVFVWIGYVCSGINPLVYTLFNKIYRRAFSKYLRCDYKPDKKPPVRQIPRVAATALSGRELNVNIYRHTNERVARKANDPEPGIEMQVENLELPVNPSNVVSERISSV

[5] = target: T3, 5HT₂-Rezeptoren (Rattus norvegicus, UniProt P14842); assay: Antagonism of Quipazine-induced head shakes; assay type: in vivo, Ratte; settings: Quipazine-pretreated, dose inhibiting number of head shakes within 45 min by 50%
T3 construct: from tissue; host or cells: living rat (whole animal)

[6] = Testmethode c, concentration displacing 50% of receptor-bound ligand (3H-Mesulergin), read-out: IC₅₀
[7] = Testmethode d, concentration displacing 50% of receptor-bound ligand (3H-Metanserin), read-out: IC₅₀
[8] = Testmethode a, concentration displacing 50% of receptor-bound ligand (3H-8-OH-DPAT), read-out: IC₅₀

Chain of 5HT₂-Rezeptor (P28223 whole entry): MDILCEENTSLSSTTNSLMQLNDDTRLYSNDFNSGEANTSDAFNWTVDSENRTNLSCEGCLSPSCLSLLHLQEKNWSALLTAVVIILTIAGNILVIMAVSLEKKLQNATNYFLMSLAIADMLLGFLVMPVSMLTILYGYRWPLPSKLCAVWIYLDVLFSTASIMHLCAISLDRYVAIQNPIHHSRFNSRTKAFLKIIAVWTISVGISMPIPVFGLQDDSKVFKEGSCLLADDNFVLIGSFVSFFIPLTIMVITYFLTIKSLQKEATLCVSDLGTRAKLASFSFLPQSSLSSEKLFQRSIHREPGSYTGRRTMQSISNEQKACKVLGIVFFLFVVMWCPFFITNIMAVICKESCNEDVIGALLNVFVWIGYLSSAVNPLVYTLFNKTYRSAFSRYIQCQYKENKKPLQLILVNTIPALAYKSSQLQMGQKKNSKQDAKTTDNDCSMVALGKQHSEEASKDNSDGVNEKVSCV
Chain of 5HT1C-Rezeptor (P28335 33-458): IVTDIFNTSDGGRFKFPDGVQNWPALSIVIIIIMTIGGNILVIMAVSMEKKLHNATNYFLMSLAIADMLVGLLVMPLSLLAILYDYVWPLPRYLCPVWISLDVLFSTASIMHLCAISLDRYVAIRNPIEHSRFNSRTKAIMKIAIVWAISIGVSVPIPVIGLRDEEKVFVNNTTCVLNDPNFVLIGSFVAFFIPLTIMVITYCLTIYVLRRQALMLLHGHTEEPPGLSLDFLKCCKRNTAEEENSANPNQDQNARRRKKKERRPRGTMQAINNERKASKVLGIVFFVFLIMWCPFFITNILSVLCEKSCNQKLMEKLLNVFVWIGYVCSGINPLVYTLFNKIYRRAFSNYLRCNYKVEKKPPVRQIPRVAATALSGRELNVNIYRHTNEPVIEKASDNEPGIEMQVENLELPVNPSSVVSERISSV
T3 sequence (P14842 whole entry): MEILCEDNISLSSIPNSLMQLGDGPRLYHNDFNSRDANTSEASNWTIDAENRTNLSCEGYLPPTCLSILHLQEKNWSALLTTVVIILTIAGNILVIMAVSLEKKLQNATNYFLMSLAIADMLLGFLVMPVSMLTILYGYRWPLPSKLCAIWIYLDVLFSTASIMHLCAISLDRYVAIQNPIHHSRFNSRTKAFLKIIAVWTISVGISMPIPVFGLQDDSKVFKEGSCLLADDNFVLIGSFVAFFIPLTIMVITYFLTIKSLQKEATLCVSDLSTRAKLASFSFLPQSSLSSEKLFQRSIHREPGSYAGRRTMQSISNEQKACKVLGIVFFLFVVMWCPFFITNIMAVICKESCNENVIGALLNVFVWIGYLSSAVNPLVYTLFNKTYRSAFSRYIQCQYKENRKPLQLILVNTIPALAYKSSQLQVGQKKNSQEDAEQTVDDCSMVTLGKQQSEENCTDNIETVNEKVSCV

Row | Compound | IC50 [1] [nM] | IC50 [2] [nM] | IC50 [3, 6] [nM] | IC50 [2, 7] [nM] | IC50 [3] [nM] | IC50 [1, 8] [nM] | ID₅₀ [4] | ID₅₀ [5] [mg/kg. s.c.]
1 | O=c1ccc2[nH]cc(C3=CCNCC3)c2[nH]1 [CP 93129, reference compound] | 1620 | 29200 | – | – | – | – | – | –
2 | COc1ccccc1N1CCN(CCCCN2C(=O)c3ccccc3C2=O)CC1 [NAN-190, reference compound] | – | 581 | 1800 | – | – | – | – | –
3 | Cc1nc2ccccn2c(=O)c1CCN1CCC(C(=O)c2ccc(F)cc2)CC1 [Pirenperon, reference compound] | 2870 | – | – | 2.9 | 37 | – | – | –
4 | COc1ccc2[nH]cc(C3=CCNCC3)c2c1 [RU 24969, reference compound] | 8 | – | – | – | – | – | – | –
5 | Cc1nc2sccn2c(=O)c1CCN1CCC(=C(c2ccc(F)cc2)c2ccc(F)cc2)CC1 [Ritanserin, reference compound] | – | – | 37 | – | – | – | – | –
6 | COc1c2n(c3ccccc13)CCNC2 [Substanz A, 10-Methoxy-1,2,3,4-tetrahydropyrazino[1,2-a]-indol] | – | – | – | – | – | 687 | – | –
7 | COc1c2n(c3ccc(F)cc13)CCNC2 [Substanz B, 8-Fluor-1,2,3,4-tetrahydro-10-methoxy-pyrazino[1,2-a]-indol] | 2370 | 9390 | – | – | 367 | – | 4.2 mg/kg, s.c. | –
8 | COc1c2n(c3cccc(F)c13)CCNC2 [Substanz C, 9-Fluor-1,2,3,4-tetrahydro-10-methoxy-pyrazino[1,2-a]indol] | 1070 | 5170 | – | – | 221 | – | 17.0 mg/kg, s.c. | –
9 | COc1c2n(c3ccc(Cl)cc13)CCNC2 [Substanz D, 8-Chlor-1,2,3,4-tetrahydro-10-methoxy-pyrazino[1,2-a]-indol] | 657 | – | – | 3140 | 195 | – | – | –
10 | COc1c2n(c3cccc(Br)c13)CCNC2 [Substanz E, 9-Brom-1,2,3,4-tetrahydro-10-methoxy-pyrazino[1,2-a]indol] | 407 | 1020 | – | – | 83.8 | – | 4.3 mg/kg, s.c. | 3.1
11 | COc1c2n(c3cc(Cl)ccc13)CCNC2 [Substanz F, 7-Chlor-1,2,3,4-tetrahydro-10-methoxy-pyrazino[1,2-a]indol] | 425 | – | 406 | 9460 | – | – | – | –
12 | COc1c2n(c3ccc(Br)cc13)CCNC2 [Substanz G, 8-Brom-1,2,3,4-tetrahydro-10-methoxy-pyrazino[1,2-a]indol] | 298 | – | 269 | 2810 | – | – | – | –
13 | COc1c2n(c3ccc(F)c(Cl)c13)CCNC2 [Substanz H, 9-Chlor-8-fluor-1,2,3,4-tetrahydro-10-methoxy-pyrazino[1,2-a]indol] | 354 | – | 90.5 | 1030 | – | – | – | –
14 | COc1c2n(c3cccc(C)c13)CCNC2 [Substanz I, 1,2,3,4-Tetrahydro-10-methoxy-9-methyl-pyrazino[1,2-a]indol] | – | – | 219 | 2270 | – | 106 | 2.7 mg/kg, s.c. | 3.0
15 | COc1c2n(c3cccc(C(F)(F)F)c13)CCNC2 [Substanz J, 9-Trifluormethyl-1,2,3,4-tetrahydro-10-methoxy-pyrazino[1,2-a]-indol] | 512 | – | 66 | 374 | – | – | – | –
16 | CSc1c2n(c3ccccc13)CCNC2 [Substanz K, 1,2,3,4-Tetrahydro-10-methylthiopyrazino[1,2-a]-indol] | – | – | – | – | – | 705 | – | –
17 | COc1c2n(c3cc(Cl)cc(Cl)c13)CCNC2 [Substanz L, 7,9-Dichlor-1,2,3,4-tetrahydro-10-methoxy-pyrazino[1,2-a]indol] | 459 | – | 251 | 5850 | – | – | – | –
18 | COc1c2n(c3c(Br)cccc13)CCNC2 [Substanz M, 6-Brom-1,2,3,4-tetrahydro-10-methoxy-pyrazino[1,2-a]indol] | 690 | – | 923 | 3030 | – | – | – | –
19 | Fc1ccc2c(cc3n2CCNC3)c1Cl [Substanz N, 9-Chlor-8-fluor-1,2,3,4-tetrahydropyrazino[1,2-a]indol] | 964 | – | 57 | 902 | – | – | 4.2 mg/kg, s.c. | 5.2
20 | Clc1cccc(N2CCNCC2)c1 [mCPP, reference compound] | 227 | – | – | – | – | – | – | –
